Experimental data from ChEMBL document CHEMBL1201862, “PubChem BioAssay data set” (2004).
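Each compound was tested at five concentrations against cells in 96-well plates for 48 hours. Here, GI50 denotes the concentration required for 50% inhibition of growth.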 The source made the active and inactive calls. Rule as the data show it: active = GI50 up to about 1.1 µM and inactive = higher.

What was measured:
Assay in all cases: growth of human tumour cells (NCI), 48 h
786-0 = system: 786-0
A498 = system: A498
A549 = system: A549
ACHN = system: ACHN
BT-549 = system: BT-549
CAKI-1 = system: CAKI-1
CCRF-CEM = system: CCRF-CEM
COLO 205 = system: COLO 205
DU-145 = system: DU-145
EKVX = system: EKVX
HCC 2998 = system: HCC 2998
HCT-116 = system: HCT-116
HCT-15 = system: HCT-15
HL-60 = system: HL-60
HOP-62 = system: HOP-62
HOP-92 = system: HOP-92
HT-29 = system: HT-29
Hs-578T = system: Hs-578T
IGROV-1 = system: IGROV-1
K562 = system: K562
KM12 = system: KM12
LOX IMVI = system: LOX IMVI
M14 = system: M14
MCF7 = system: MCF7
MDA-MB-231 = system: MDA-MB-231
MDA-MB-435 = system: MDA-MB-435
MDA-N = system: MDA-N
MOLT-4 = system: MOLT-4
Malme-3M = system: Malme-3M
NCI-H226 = system: NCI-H226
NCI-H23 = system: NCI-H23
NCI-H460 = system: NCI-H460
NCI-H522 = system: NCI-H522
NCI/ADR-RES = system: NCI/ADR-RES
OVCAR-3 = system: OVCAR-3
OVCAR-4 = system: OVCAR-4
OVCAR-5 = system: OVCAR-5
OVCAR-8 = system: OVCAR-8
PC-3 = system: PC-3
RPMI-8226 = system: RPMI-8226
RXF 393 = system: RXF 393
SF-268 = system: SF-268
SF-295 = system: SF-295
SF-539 = system: SF-539
SK-MEL-28 = system: SK-MEL-28
SK-MEL-2 = system: SK-MEL-2
SK-MEL-5 = system: SK-MEL-5
SK-OV-3 = system: SK-OV-3
SN12C = system: SN12C
SNB-19 = system: SNB-19
SNB-75 = system: SNB-75
SR = system: SR
SW-620 = system: SW-620
T47D = system: T47D
TK-10 = system: TK-10
U-251 = system: U-251
UACC-257 = system: UACC-257
UACC-62 = system: UACC-62
UO-31 = system: UO-31
DMS-114 = system: DMS-114
DMS-273 = system: DMS-273
KM-20L2 = system: KM-20L2
M19-MEL = system: M19-MEL
SNB-78 = system: SNB-78

CC(C)NC(=O)OCc1c(COC(=O)NC(C)C)c(-c2cc[n+](COC(=O)C(C)(C)C)cc2)n2c1CCC2 was tested, and the GI50 (786-0) was > 100 µM (inactive), the GI50 (A498) was > 100 µM (inactive) and the GI50 (A549) was > 100 µM (inactive). The GI50 (ACHN) was 61.9 µM (inactive), the GI50 (BT-549) was > 100 µM (inactive) and the GI50 (CAKI-1) was 60 µM (inactive). The GI50 (CCRF-CEM) was > 100 µM (inactive), the GI50 (COLO 205) was > 100 µM (inactive) and the GI50 (DU-145) was > 100 µM (inactive). For the same molecule, the GI50 (EKVX) was > 100 µM (inactive), the GI50 (HCC 2998) was > 100 µM (inactive) and the GI50 (HCT-116) was > 100 µM (inactive). The GI50 (HCT-15) was > 100 µM, the GI50 (HL-60) was > 100 µM (inactive) and the GI50 (HOP-62) was > 100 µM (inactive). For the same molecule, the GI50 (HOP-92) was > 100 µM (inactive), the GI50 (HT-29) was > 100 µM (inactive) and the GI50 (Hs-578T) was > 100 µM (inactive). The GI50 (IGROV-1) was > 100 µM (inactive), the GI50 (K562) was > 100 µM (inactive) and the GI50 (KM12) was > 100 µM (inactive). For the same molecule, the GI50 (LOX IMVI) was > 100 µM (inactive), the GI50 (M14) was > 100 µM (inactive) and the GI50 (MCF7) was > 100 µM (inactive). For the same molecule, the GI50 (MDA-MB-231) was > 100 µM (inactive), the GI50 (MDA-MB-435) was > 100 µM (inactive) and the GI50 (MDA-N) was > 100 µM (inactive). The GI50 (MOLT-4) was > 100 µM (inactive), the GI50 (Malme-3M) was > 100 µM (inactive) and the GI50 (NCI-H226) was > 100 µM (inactive). For the same molecule, the GI50 (NCI-H23) was > 100 µM (inactive), the GI50 (NCI-H460) was > 100 µM (inactive) and the GI50 (NCI-H522) was > 100 µM (inactive). The GI50 (NCI/ADR-RES) was > 100 µM (inactive), the GI50 (OVCAR-3) was > 100 µM (inactive) and the GI50 (OVCAR-4) was > 100 µM (inactive). The GI50 (OVCAR-5) was > 100 µM (inactive), the GI50 (OVCAR-8) was > 100 µM (inactive) and the GI50 (PC-3) was > 100 µM (inactive). The GI50 (RPMI-8226) was > 100 µM (inactive), the GI50 (RXF 393) was > 100 µM (inactive) and the GI50 (SF-268) was > 100 µM (inactive). For the same molecule, the GI50 (SF-295) was > 100 µM (inactive), the GI50 (SF-539) was > 100 µM (inactive) and the GI50 (SK-MEL-28) was > 100 µM (inactive). The GI50 (SK-MEL-2) was > 100 µM (inactive), the GI50 (SK-MEL-5) was > 100 µM (inactive) and the GI50 (SK-OV-3) was > 100 µM (inactive). For the same molecule, the GI50 (SN12C) was > 100 µM (inactive), the GI50 (SNB-19) was > 100 µM (inactive) and the GI50 (SNB-75) was > 100 µM (inactive). The GI50 (SR) was 19.1 µM (inactive), the GI50 (SW-620) was > 100 µM (inactive) and the GI50 (T47D) was > 100 µM (inactive). The GI50 (TK-10) was > 100 µM (inactive), the GI50 (U-251) was > 100 µM (inactive) and the GI50 (UACC-257) was > 100 µM (inactive). The GI50 (UACC-62) was > 100 µM (inactive) and the GI50 (UO-31) was > 100 µM (inactive).

In the case of N#CC1(N2CCCC2)CCC2(CC1)OCCO2, the GI50 (786-0) is reported as > 100 µM (inactive), the GI50 (A498) is reported as > 100 µM (inactive) and the GI50 (A549) is reported as > 100 µM (inactive). The GI50 (ACHN) was > 100 µM (inactive), the GI50 (CAKI-1) was > 100 µM (inactive) and the GI50 (CCRF-CEM) was > 100 µM (inactive). For the same molecule, the GI50 (COLO 205) was > 10 µM (inactive), the GI50 (DMS-114) was > 100 µM (inactive) and the GI50 (DMS-273) was > 10 µM (inactive). The GI50 (EKVX) was > 100 µM (inactive), the GI50 (HCC 2998) was > 100 µM (inactive) and the GI50 (HCT-116) was > 100 µM (inactive). For the same molecule, the GI50 (HCT-15) was > 100 µM, the GI50 (HL-60) was > 100 µM (inactive) and the GI50 (HOP-62) was > 100 µM (inactive). For the same molecule, the GI50 (HOP-92) was > 100 µM (inactive), the GI50 (HT-29) was > 100 µM (inactive) and the GI50 (IGROV-1) was > 100 µM (inactive). For the same molecule, the GI50 (K562) was > 100 µM (inactive), the GI50 (KM-20L2) was > 100 µM (inactive) and the GI50 (KM12) was > 100 µM (inactive). The GI50 (LOX IMVI) was > 100 µM (inactive), the GI50 (M14) was > 100 µM (inactive) and the GI50 (M19-MEL) was > 10 µM (inactive). For the same molecule, the GI50 (MOLT-4) was > 100 µM (inactive), the GI50 (Malme-3M) was > 100 µM (inactive) and the GI50 (NCI-H226) was > 100 µM (inactive). For the same molecule, the GI50 (NCI-H23) was > 100 µM (inactive), the GI50 (NCI-H460) was > 100 µM (inactive) and the GI50 (NCI-H522) was > 100 µM (inactive). For the same molecule, the GI50 (OVCAR-3) was > 100 µM (inactive), the GI50 (OVCAR-4) was > 100 µM (inactive) and the GI50 (OVCAR-5) was > 100 µM (inactive). For the same molecule, the GI50 (OVCAR-8) was > 100 µM (inactive), the GI50 (RPMI-8226) was > 100 µM (inactive) and the GI50 (RXF 393) was > 100 µM (inactive). The GI50 (SF-268) was > 100 µM (inactive), the GI50 (SF-295) was > 100 µM (inactive) and the GI50 (SF-539) was > 100 µM (inactive). The GI50 (SK-MEL-28) was > 100 µM (inactive), the GI50 (SK-MEL-2) was > 100 µM (inactive) and the GI50 (SK-MEL-5) was > 100 µM (inactive). The GI50 (SK-OV-3) was > 100 µM (inactive), the GI50 (SN12C) was > 100 µM (inactive) and the GI50 (SNB-19) was > 100 µM (inactive). The GI50 (SNB-75) was > 100 µM (inactive), the GI50 (SNB-78) was > 100 µM (inactive) and the GI50 (SR) was > 100 µM (inactive). For the same molecule, the GI50 (SW-620) was > 100 µM (inactive), the GI50 (TK-10) was > 100 µM (inactive) and the GI50 (U-251) was > 100 µM (inactive). For the same molecule, the GI50 (UACC-257) was > 100 µM (inactive), the GI50 (UACC-62) was > 100 µM (inactive) and the GI50 (UO-31) was > 100 µM (inactive).
